What was measured:
Test in all cases: biochemical
Set-up in all cases: Kinase selectivity panel, IC50 of AC484 (Supplementary Table 1)
[1] = target: T1, Abl (Homo sapiens, UniProt P00519)
T1 construct: gene ABL1
Description: (§1) Wide-range phosphatase, kinase and preclinical safety pharmacology off-target activity screens were conducted at Eurofins (Extended Data Table 5 and Supplementary Tables 1 and 2). A small phosphatase panel was developed at AbbVie to assess IC50 values on select phosphatases. The following enzymes used in the phosphatase selectivity panel were purchased from Eurofins: PTPN1 (PTP1B; 14–621), PTPN2 (TC-PTP; 14–646), PTPN9 (14–592), SHP1 (14–591) and SHP2 (14–622). The catalytic activity of the phosphatase was monitored using the small-molecule substrate DiFMUP (ThermoFisher) in a fluorescence assay format. In brief, the phosphatase reactions were performed at room temperature in the following assay buffer: 50 mM HEPES, pH 7.2, 100 mM NaCl, 1 mM EDTA, 0.005% Tween-20 and 5 mM TCEP. Each phosphatase was incubated with increasing concentrations of AC484 for 5 min, after which the substrate DiFMUP was added and incubated at 25 °C for 30 min. The final concentration of the enzyme and substrate was maintained at 0.5 nM and 5 μM, respectively, in all the assays. The reaction was then quenched by the addition of a 100 μM solution of bpV(Phen) (Enzo Life Sciences). The fluorescence signal was monitored using an Envision microplate reader (Perkin-Elmer) using excitation and emission wavelengths of 340 nm and 450 nm, respectively. The dose–response curves for the inhibitors were analysed using normalized IC50 regression curve fitting with control-based normalization. Supplementary file 41586_2023_6575_MOESM3_ESM.xlsx: Supplementary Table 1 AC484 kinase selectivity screen.

[2] = target: BTK (Homo sapiens, UniProt Q06187)
Description: as §1

[3] = target: EGFR (Homo sapiens, UniProt P00533)
Description: as §1

[4] = target: Flt1 (Homo sapiens, UniProt P17948)
Description: as §1

[5] = target: LTK (Homo sapiens, UniProt P29376)
Description: as §1

[6] = target: Nek2 (Homo sapiens, UniProt P51955)
Description: as §1

[7] = target: T2, PKA (Homo sapiens, UniProt P17612)
T2 construct: gene PRKACA
Description: as §1

[8] = target: T3, PKAc beta (Homo sapiens, UniProt P22694)
T3 construct: gene PRKACB
Description: as §1

[9] = target: T4, PKCdelta (Homo sapiens, UniProt Q05655)
T4 construct: gene PRKCD
Description: as §1

[10] = target: T5, Prkcn (Homo sapiens, UniProt O94806)
T5 construct: gene PRKD3
Description: as §1

[11] = target: TNK2 (Homo sapiens, UniProt Q07912)
Description: as §1

[12] = target: Wee1 (Homo sapiens, UniProt P30291)
Description: as §1

[13] = target: CAMKK2 (Homo sapiens, UniProt Q96RR4)
[14] = target: CSK (Homo sapiens, UniProt P41240)
[15] = target: DDR1 (Homo sapiens, UniProt Q08345)
[16] = target: FGR (Homo sapiens, UniProt P09769)
[17] = target: IGF1R (Homo sapiens, UniProt P08069)
[18] = target: IRAK4 (Homo sapiens, UniProt Q9NWZ3)
[19] = target: T6, PKCbeta2 (Homo sapiens, UniProt P05771)
T6 construct: gene PRKCB; isoform beta2

[20] = target: TAOK2 (Homo sapiens, UniProt Q9UL54)
[21] = target: TXK (Homo sapiens, UniProt P42681)
[22] = target: T7, Zipk (Homo sapiens, UniProt O43293)
T7 construct: gene DAPK3

[23] = target: T8, _PKCtheta (Homo sapiens, UniProt Q04759)
T8 construct: gene PRKCQ

Measured: IC50

T6 sequence (P05771 whole entry, canonical isoform): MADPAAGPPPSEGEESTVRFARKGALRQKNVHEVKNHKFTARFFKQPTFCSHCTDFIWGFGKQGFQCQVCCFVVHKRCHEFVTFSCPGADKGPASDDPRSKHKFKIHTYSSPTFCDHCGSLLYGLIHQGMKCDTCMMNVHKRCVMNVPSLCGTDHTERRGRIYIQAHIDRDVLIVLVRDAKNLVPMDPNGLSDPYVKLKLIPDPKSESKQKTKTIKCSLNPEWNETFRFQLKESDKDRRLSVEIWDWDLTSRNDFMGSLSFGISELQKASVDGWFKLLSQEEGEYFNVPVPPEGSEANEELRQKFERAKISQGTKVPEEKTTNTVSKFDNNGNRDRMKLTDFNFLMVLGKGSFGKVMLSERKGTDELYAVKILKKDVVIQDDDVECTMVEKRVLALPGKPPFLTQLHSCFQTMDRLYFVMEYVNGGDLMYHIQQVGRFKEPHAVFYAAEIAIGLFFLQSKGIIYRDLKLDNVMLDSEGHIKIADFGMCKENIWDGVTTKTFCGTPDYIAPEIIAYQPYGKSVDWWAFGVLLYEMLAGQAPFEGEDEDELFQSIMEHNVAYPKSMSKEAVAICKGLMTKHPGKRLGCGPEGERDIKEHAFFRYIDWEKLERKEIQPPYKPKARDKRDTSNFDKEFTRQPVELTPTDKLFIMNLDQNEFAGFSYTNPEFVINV
BTK, sequence (Q06187 whole entry): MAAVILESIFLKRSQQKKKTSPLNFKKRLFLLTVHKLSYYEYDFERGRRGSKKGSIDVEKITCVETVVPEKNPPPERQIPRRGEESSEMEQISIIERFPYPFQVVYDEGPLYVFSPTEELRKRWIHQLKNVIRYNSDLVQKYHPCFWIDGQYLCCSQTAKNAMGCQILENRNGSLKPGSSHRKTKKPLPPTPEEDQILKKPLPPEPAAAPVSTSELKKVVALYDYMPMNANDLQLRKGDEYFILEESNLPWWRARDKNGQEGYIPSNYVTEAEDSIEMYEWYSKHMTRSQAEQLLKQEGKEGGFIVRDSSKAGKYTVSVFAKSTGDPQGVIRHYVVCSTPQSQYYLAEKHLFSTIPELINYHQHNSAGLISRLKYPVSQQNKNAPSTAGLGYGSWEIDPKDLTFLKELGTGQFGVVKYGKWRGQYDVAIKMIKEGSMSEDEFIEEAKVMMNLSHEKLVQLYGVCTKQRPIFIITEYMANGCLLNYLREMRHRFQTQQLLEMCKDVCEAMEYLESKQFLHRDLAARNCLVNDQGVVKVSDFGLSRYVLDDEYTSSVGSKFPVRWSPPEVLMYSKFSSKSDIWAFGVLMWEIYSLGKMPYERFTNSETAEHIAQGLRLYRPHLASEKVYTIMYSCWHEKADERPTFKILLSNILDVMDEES
IRAK4, sequence (Q9NWZ3 whole entry): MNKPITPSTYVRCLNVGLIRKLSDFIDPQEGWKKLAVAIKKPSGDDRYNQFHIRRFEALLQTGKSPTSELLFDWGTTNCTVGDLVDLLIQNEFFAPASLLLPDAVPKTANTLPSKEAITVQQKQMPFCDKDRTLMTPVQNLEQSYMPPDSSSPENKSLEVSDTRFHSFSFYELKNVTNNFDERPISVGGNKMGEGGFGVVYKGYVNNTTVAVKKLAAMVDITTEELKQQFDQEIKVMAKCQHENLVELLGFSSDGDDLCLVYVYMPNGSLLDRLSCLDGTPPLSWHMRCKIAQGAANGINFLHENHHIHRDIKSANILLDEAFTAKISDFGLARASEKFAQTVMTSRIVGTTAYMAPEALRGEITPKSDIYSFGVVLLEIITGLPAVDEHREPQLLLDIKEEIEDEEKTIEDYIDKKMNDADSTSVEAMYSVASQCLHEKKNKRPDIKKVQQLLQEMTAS
TAOK2, sequence (Q9UL54 whole entry): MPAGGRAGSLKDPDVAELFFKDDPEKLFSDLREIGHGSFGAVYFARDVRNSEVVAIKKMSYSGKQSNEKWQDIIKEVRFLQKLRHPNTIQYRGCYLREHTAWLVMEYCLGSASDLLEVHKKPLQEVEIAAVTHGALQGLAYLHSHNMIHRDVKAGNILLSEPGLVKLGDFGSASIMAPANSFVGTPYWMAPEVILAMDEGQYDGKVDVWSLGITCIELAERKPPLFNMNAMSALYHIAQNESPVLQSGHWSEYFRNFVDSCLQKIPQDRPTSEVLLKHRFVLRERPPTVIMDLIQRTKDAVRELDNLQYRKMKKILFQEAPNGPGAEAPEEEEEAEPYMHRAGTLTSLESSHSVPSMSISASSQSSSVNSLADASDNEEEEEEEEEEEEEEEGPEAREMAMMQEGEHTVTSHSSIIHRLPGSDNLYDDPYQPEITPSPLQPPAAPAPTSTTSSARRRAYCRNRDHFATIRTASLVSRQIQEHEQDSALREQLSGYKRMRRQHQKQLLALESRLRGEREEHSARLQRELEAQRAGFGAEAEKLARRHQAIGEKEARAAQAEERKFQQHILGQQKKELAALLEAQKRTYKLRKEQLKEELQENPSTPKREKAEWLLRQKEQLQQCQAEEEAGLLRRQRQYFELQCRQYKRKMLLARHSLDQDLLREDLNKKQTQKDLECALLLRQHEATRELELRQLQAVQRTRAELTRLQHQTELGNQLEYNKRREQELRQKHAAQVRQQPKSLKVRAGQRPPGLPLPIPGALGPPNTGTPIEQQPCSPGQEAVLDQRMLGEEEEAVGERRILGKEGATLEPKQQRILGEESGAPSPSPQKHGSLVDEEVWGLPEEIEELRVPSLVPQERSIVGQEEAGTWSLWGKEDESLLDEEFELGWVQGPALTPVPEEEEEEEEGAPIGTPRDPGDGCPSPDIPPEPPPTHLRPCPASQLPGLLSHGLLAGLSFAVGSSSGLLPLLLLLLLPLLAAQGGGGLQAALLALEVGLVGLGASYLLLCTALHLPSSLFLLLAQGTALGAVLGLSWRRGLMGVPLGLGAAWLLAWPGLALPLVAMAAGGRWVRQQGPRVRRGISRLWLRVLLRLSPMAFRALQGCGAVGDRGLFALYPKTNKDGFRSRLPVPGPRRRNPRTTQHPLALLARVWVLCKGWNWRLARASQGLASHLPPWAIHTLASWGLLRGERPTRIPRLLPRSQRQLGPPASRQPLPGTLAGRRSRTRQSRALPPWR
T4 sequence (Q05655 whole entry): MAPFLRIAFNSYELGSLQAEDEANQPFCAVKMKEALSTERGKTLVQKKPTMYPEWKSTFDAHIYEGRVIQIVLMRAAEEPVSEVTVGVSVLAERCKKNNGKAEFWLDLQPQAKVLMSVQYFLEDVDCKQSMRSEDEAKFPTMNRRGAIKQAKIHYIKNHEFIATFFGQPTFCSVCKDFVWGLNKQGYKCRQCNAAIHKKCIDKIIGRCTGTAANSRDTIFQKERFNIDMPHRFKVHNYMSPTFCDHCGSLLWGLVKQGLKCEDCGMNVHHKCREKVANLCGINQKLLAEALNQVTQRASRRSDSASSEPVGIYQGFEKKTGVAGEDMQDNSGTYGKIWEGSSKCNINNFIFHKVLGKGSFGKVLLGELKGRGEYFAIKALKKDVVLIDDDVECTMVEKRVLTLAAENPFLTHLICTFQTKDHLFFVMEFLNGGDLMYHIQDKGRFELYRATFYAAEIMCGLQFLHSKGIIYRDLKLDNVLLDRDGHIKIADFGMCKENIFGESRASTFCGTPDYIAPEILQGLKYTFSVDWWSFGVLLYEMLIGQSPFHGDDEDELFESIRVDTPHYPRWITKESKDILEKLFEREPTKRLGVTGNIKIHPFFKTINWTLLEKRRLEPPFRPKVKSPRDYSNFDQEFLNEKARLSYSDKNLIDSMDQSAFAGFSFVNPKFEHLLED
T7 sequence (O43293 whole entry): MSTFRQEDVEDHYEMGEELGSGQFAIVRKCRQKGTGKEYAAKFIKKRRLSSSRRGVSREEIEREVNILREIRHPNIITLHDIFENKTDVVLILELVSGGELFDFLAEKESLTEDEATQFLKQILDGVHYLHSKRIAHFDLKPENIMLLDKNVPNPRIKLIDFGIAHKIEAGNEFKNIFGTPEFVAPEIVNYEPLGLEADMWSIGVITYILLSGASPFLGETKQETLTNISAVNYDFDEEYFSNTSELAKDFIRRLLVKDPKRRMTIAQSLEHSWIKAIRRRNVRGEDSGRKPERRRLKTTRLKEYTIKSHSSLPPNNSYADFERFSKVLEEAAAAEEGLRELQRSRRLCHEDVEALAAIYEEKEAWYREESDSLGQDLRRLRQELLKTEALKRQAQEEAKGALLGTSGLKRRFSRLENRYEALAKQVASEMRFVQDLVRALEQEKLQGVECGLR
FGR, sequence (P09769 whole entry): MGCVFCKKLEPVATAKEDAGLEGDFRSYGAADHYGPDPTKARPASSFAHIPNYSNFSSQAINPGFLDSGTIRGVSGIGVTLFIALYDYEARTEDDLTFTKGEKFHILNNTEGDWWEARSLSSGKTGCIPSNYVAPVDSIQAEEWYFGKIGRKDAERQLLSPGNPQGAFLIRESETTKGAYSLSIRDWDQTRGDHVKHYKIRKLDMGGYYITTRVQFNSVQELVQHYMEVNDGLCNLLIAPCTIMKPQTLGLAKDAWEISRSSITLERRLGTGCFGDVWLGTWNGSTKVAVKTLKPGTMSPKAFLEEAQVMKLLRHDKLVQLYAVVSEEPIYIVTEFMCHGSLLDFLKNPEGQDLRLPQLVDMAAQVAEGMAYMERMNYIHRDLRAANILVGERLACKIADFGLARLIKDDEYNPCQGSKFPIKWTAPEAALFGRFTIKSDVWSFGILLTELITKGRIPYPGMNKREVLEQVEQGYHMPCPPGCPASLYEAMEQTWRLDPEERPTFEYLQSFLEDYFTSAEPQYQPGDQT

CC(C)CCN[C@@H]1CCc2cc(O)c(N3CC(=O)NS3(=O)=O)c(F)c2C1 [AC484, ABBV-CLS-484]
> 10 µM: all assays above

— article PMC10599993, “The PTPN2/PTPN1 inhibitor ABBV-CLS-484 unleashes potent anti-tumour immunity” (Nature, 2023)
